In patent US12077503B2, “Substituted cyclic amides and their use as herbicides” (FMC CORPORATION, priority 2015, dated 2024):

Legend:
Assay type in all cases: in vivo
[1] = system: giant foxtail (Setaria faberii); test: Test A preemergence
Summary of the method: (§1)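 Visual injury scores from 0, no effect, to 100, complete control, were assigned versus untreated controls roughly 10 d after treatment in the greenhouse. Test chemicals, formulated with surfactant in a non-phytotoxic solvent, were applied to planted seeds as a preemergence soil spray or postemergence to one- to two-leaf plants 2 to 10 cm tall, in loam–sand soil.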

[2] = system: barnyardgrass (Echinochloa crus-galli); test: Test A preemergence
Summary of the method: as §1

[3] = system: ragweed (common ragweed, Ambrosia elatior); test: Test A preemergence
Summary of the method: as §1

[4] = system: Kochia (Kochia scoparia); test: Test A preemergence
Summary of the method: as §1

[5] = system: pigweed (Amaranthus retroflexus); test: Test A preemergence
[6] = system: ryegrass, Italian (Italian ryegrass, Lolium multiflorum); test: Test A preemergence
Summary of the method: as §1

[7] = system: wheat (Triticum aestivum); test: Test A postemergence
Summary of the method: as §1

[8] = system: giant foxtail (Setaria faberii); test: Test A postemergence
Summary of the method: as §1

[9] = system: barnyardgrass (Echinochloa crus-galli); test: Test A postemergence
Summary of the method: as §1

[10] = system: ragweed (common ragweed, Ambrosia elatior); test: Test A postemergence
Summary of the method: as §1

[11] = system: Kochia (Kochia scoparia); test: Test A postemergence
Summary of the method: as §1

[12] = system: pigweed (Amaranthus retroflexus); test: Test A postemergence
Summary of the method: as §1

[13] = system: blackgrass (Alopecurus myosuroides); test: Test A postemergence
Summary of the method: as §1

[14] = system: corn (Zea mays); test: Test A postemergence
Summary of the method: as §1

[15] = system: Galium (catchweed bedstraw, Galium aparine); test: Test A postemergence
Summary of the method: as §1

[16] = system: ryegrass, Italian (Italian ryegrass, Lolium multiflorum); test: Test A postemergence
Summary of the method: as §1

[17] = system: ducksalad (Heteranthera limosa); test: Test B flooded paddy test; settings: Flood, 0 to 100 scale where 0 is no effect and 100 is complete control, 13 to 15 d
Summary of the method: (§2)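 Compound goes directly into floodwater once pots are flooded 3 cm above soil, targeting plants at two leaves; the water depth is then held for the test duration. Plants sit 13–15 d in a greenhouse and are rated visually, 100 denoting complete control.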

[18] = system: sedge, umbrella (small-flower umbrella sedge, Cyperus difformis); test: Test B flooded paddy test; settings: Flood, 0 to 100 scale where 0 is no effect and 100 is complete control, 13 to 15 d
Summary of the method: as §2

[19] = system: barnyardgrass (Echinochloa crus-galli); test: Test B flooded paddy test; settings: Flood, 0 to 100 scale where 0 is no effect and 100 is complete control, 13 to 15 d
Summary of the method: as §2

[20] = system: rice (Oryra sativa); test: Test B flooded paddy test; settings: Flood, 0 to 100 scale where 0 is no effect and 100 is complete control, 13 to 15 d
Summary of the method: as §2

[21] = 125 g ai/ha, Preemergence, visual injury after approximately 10 d, 0 to 100 scale where 0 is no effect and 100 is complete control
[22] = Preemergence, 500 g ai/ha, visual injury approx. 10 d
[23] = 125 g ai/ha, postemergence, visual rating after approx. 10 d, 0 to 100 scale (0 no effect, 100 complete control)
[24] = Postemergence, 500 g ai/ha, 0 to 100 scale where 0 is no effect and 100 is complete control
[25] = 125 g ai/ha, postemergence, visual injury rating on 0 to 100 scale (0 no effect, 100 complete control), approx. 10 d
[26] = 500 g ai/ha, preemergence, 0 to 100 scale, 0 = no effect, 100 = complete control

Structure (SMILES) | Plant response rating, Foxtail, Giant [1, 21] | Plant response rating, Barnyardgrass [2, 21] | Plant response rating, Ragweed [3, 21] | Plant response rating, Kochia [4, 21] | Plant response rating, Pigweed [5, 21] | Plant response rating, Ryegrass, Italian [6, 21] | Plant response rating, Wheat [7, 23] | Plant response rating, Wheat [7, 24] | Plant response rating, Foxtail, Giant [8, 23] | Plant response rating, Foxtail, Giant [8, 24] | Plant response rating, Barnyardgrass [9, 24] | Plant response rating, Ragweed [10, 23] | Plant response rating, Ragweed [10, 24] | Plant response rating, Kochia [11, 23] | Plant response rating, Kochia [11, 24] | Plant response rating, Pigweed [12, 23] | Plant response rating, Pigweed [12, 24] | Plant response rating, Blackgrass [13, 24] | Plant response rating, Corn [14, 23] | Plant response rating, Corn [14, 24] | also measured
O=C1NCC(c2ccc(Oc3ccccc3)cc2)C1C(=O)Nc1ccccc1Cl (racemic) [Compound 538] | 0 | 0 | 0 | 0 | 0 | 0 | 0 | 0 | 0 | 0 | 0 | 0 | 0 | 0 | 0 | 0 | 0 | 0 | 0 | 0 | Foxtail, Giant plant response rating (0 to 100 scale, 0 is no effect, 100 is complete control) [1, 22]: 0; Barnyardgrass plant response rating (0 to 100 scale, 0 is no effect, 100 is complete control) [2, 22]: 0; Ragweed plant response rating (0 to 100 scale, 0 is no effect, 100 is complete control) [3, 22]: 0; Kochia plant response rating (0 to 100 scale, 0 is no effect, 100 is complete control) [4, 22]: 0; Pigweed plant response rating (0 to 100 scale, 0 is no effect, 100 is complete control) [5, 22]: 0; Ryegrass, Italian plant response rating (0 to 100 scale, 0 is no effect, 100 is complete control) [6, 22]: 0; Barnyardgrass plant response rating [9, 25]: 0; Blackgrass plant response rating [13, 25]: 0; Plant response rating, Galium [15, 23]: 0; Plant response rating, Galium [15, 24]: 0; Plant response rating, Ryegrass, Italian [16, 23]: 0; Plant response rating, Ryegrass, Italian [16, 24]: 0; Plant response rating, Ducksalad ([17]; 500 g ai/ha): 0; Plant response rating, Sedge, Umbrella ([18]; 500 g ai/ha): 0; Plant response rating, Barnyardgrass ([19]; 500 g ai/ha): 0; Plant response rating, Rice ([20]; 500 g ai/ha): 0
CN1CC(c2ccc(C(F)(F)F)cc2)C(C(=O)Nc2ccc(F)cc2F)C1=O (stereo not drawn) [Compound 625] | 90 | 80 | 20 | 50 | 50 | 30 | 0 | 50 | 90 | 90 | 90 | 0 | 20 | 30 | 50 | 20 | 50 | 40 | 10 | 50 | Plant response rating, Foxtail, Giant [1, 26]: 90; Plant response rating, Barnyardgrass [2, 26]: 90; Plant response rating, Ragweed [3, 26]: 60; Plant response rating, Kochia [4, 26]: 80; Plant response rating, Pigweed [5, 26]: 90; Plant response rating, Ryegrass, Italian [6, 26]: 50; Plant response rating, Barnyardgrass [9, 23]: 80; Plant response rating, Blackgrass [13, 23]: 30; Plant response rating, Galium [15, 23]: 30; Plant response rating, Galium [15, 24]: 60; Plant response rating, Ryegrass, Italian [16, 23]: 20; Plant response rating, Ryegrass, Italian [16, 24]: 30; Plant response rating, Ducksalad ([17]; 250 g ai/ha): 100; Plant response rating, Sedge, Umbrella ([18]; 250 g ai/ha): 0; Plant response rating, Barnyardgrass ([19]; 250 g ai/ha): 40; Plant response rating, Rice ([20]; 250 g ai/ha): 0
